Experiments:
[1] = Fecal drug kinetics: BKI concentrations in pooled feces by LC-MS/MS; type: in vivo, piglets
Procedure: Additionally, to determine exposure to BKI 1369 and its metabolites, BKI 1318 and BKI 1817, pooled fecal samples per group were collected before treatment (−24 h), 2, 24 and 48 h after treatment and at the end of the study (SD 29; experiment I). Approximately 1 g of feces was soaked overnight in 3 ml phosphate buffered saline (PBS, pH 7.4). The following day, 12 ml of acetonitrile containing 100 μM propanolol as an internal standard was added and the mixture was thoroughly vortexed and centrifuged at 1000×g for 30 min. Clear supernatant was then transferred to Eppendorf tubes and concentrated in a miVac® Duo Concentrator (SP Scientific, Pennsylvania, USA) at 35 °C. Control/blank samples spiked with known amounts of target analyte were processed in tandem to provide a standard curve. The concentrated samples were shipped to the University of Washington and were stored at −20 °C until analysis by liquid chromatography-tandem mass spectrometry (LC-MS/MS) to determine fecal pharmacokinetics. All LC-MS/MS analyses were carried out on a Waters Acquity UPLC coupled with a Xevo TQS Micro and analyzed using MassLynx software (Waters Corporation, Milford, MA, USA). Extraction and LC-MS/MS conditions are described in detail in the Supplementary File S1.
Tissue and feces from vehicle control treated piglets were used as blanks or standards. Calibration curves for BKI 1369, BKI 1318, and BKI 1817 were prepared by adding 2 μL BKI in dimethylsulfoxide (DMSO) to 18 μL tissue or feces controls to generate nominal concentrations of 0.004, 0.008, 0.02, 0.04, 0.08, 0.2, 0.4, 0.8, 2, 5, 10, and 20 μM. Calibration curves were generated separately for each tissue type and feces.
5 μL of tissue homogenate curves and samples were added to tubes that contained 95 μL of 80:20 acetonitrile: water. As an internal standard, propranolol was added to each sample to a final concentration of 20 nM. Samples were dried to completion using a miVac Duo Concentrator (SP Scientific, Pennsylvania, USA) at 35 °C. Sample processing for feces was similar but utilized a slightly different process to concentrate the sample as explained in the methods. Dried Samples were sealed and shipped to the University of Washington for LC-MS/MS analysis.

C. suis merozoites = assay: Merozoite replication (growth) inhibition in infected IPEC-1 cultures, free merozoites counted 9 dpi; type: cell-based, Cystoisospora suis; conditions: for Decrease of total merozoite counts: 400 nM once at 2 dpi, vs DMSO-only and no-treatment controls; for Merozoite replication at 9 dpi: 50 nM, P < 0.05 vs DMSO-only and no-treatment
Procedure: The laboratory strain C. suis Wien I ([Joachim and Mundt, 2011]), was maintained by passage in suckling piglets every 3–6 months and infectivity in vivo was assessed regularly at the Institute of Parasitology, University of Veterinary Medicine, Vienna. Oocysts were purified from collected feces, brought to sporulation and stored as described elsewhere ([Worliczek et al., 2013]). For in vitro studies, sporozoites were excysted ([Worliczek et al., 2013]), enumerated with a hemocytometer and used immediately for infection of semi-permanent intestinal porcine epithelial cells (IPEC-1). For in vivo studies, sporulated oocysts were washed with tap water and enumerated prior to infection of piglets.
IPEC-1 cells were maintained in culture medium at 37 °C and 5% CO2 (DHEM/HAM12 supplemented with 5% fetal calf serum and penicillin/streptomycin; Gibco via Thermo Fisher, Vienna, Austria). Cells (4 × 10^4) were used to seed 24-well plates and grown to confluence. All BKI compounds were stored as 20 mM stock solutions in 100% dimethyl sulfoxide (DMSO) at −20 °C. Cell viability in the presence of DMSO and BKIs was determined by colorimetric cell proliferation (WST-1) assays ([Shrestha et al., 2019]). In addition IPEC-1 cells were infected with serial dilutions of C. suis sporozoites, obtained after excystation to evaluate the growth curves of merozoites during 5–9 days of cultivation. To determine the effect of BKI 1369 on parasite replication, sporozoites (5 × 10^2) were added to each well one day after seeding of host cells and incubated with different concentrations of BKI 1369 at 40 °C for various time periods or a DMSO control, in triplicate.
In order to test whether BKI 1369 affects initial host cell invasion by C. suis, freshly excysted sporozoites were pre-incubated with BKI 1369 or DMSO for 6 h at 37 °C. Subsequently, sporozoites were washed with medium and used for infection of cell monolayers (5 × 10^2/well), in triplicate. Readout for both growth (merozoite replication) and invasion-inhibition experiments was microscopical evaluation by counting free merozoites 9 days post-infection (dpi) from culture supernatants. Supernatants were collected and free merozoites were counted in pooled samples at 9 dpi from quadruplicate wells in C-Chip disposable hemocytometers (NanoEnTek/Roth Lactan, Graz, Austria). All assays included DMSO and no-treatment controls in quadruplicate.
Statistical calculations for in vivo trials were performed with RStudio version 1.1.453 (RStudio Team, 2018), descriptive statistics with Microsoft Excel 2010 (Microsoft Inc., Vienna, Austria) and GraphPad Prism version 5.04 for Windows (GraphPad Software, San Diego, California USA). Differences in clinical and parasitological parameters between groups were analyzed with ANOVA in the case of normal distribution and variance homogeneity of the data, or a Kruskal-Wallis rank sum test if this was not the case. In the event of significance for the omnibus tests, parametric or non-parametric post-hoc tests for multiple comparisons were performed (according to Tukey and Conover, respectively), with P-value adjustment after Bonferroni. In vitro assays were evaluated by t-tests with significance reported at P < 0.05. For testing of efficacy in vitro, the percentage of growth/invasion inhibition was calculated as follows: % inhibition = (1−No. of merozoites counted at 9 dpi in BKI 1369 treated culture /No. of merozoites counted at 9 dpi in DMSO-only treated culture)x100

[2] = Group A (20 mg BKI 1369/kg BW; 0 dpi), SD 2, −24 h (before treatment)
[3] = Group A (20 mg BKI 1369/kg BW; 0 dpi), SD 3, 2 h post first-dose
[4] = Group A (20 mg BKI 1369/kg BW; 0 dpi), SD 4, 24 h post first-dose
[5] = Group A (20 mg BKI 1369/kg BW; 0 dpi), SD 5, 48 h post first-dose
[6] = Group A (20 mg BKI 1369/kg BW; 0 dpi), SD 29, 624 h post first-dose
[7] = Group A: single treatment 20 mg BKI 1369/kg on SD 3, pooled feces
[8] = Group A: single treatment 20 mg BKI 1369/kg on SD 3, pooled feces, post dose
[9] = Group B (20 mg BKI 1369/kg BW; 2 dpi), SD 4, −24 h (before treatment)
[10] = Group B (20 mg BKI 1369/kg BW; 2 dpi), SD 5, 2 h post first-dose
[11] = Group B (20 mg BKI 1369/kg BW; 2 dpi), SD 6, 24 h post first-dose
[12] = Group B (20 mg BKI 1369/kg BW; 2 dpi), SD 7, 48 h post first-dose
[13] = Group B (20 mg BKI 1369/kg BW; 2 dpi), SD 29, 576 h post first-dose
[14] = Group B: single treatment 20 mg BKI 1369/kg on SD 5, pooled feces
[15] = Group B: single treatment 20 mg BKI 1369/kg on SD 5, pooled feces, post-dose
[16] = Group C (20 mg BKI 1369/kg BW; 2 and 4 dpi), SD 4, −24 h (before treatment)
[17] = Group C (20 mg BKI 1369/kg BW; 2 and 4 dpi), SD 5, 2 h post first-dose
[18] = Group C (20 mg BKI 1369/kg BW; 2 and 4 dpi), SD 6, 24 h post first-dose
[19] = Group C (20 mg BKI 1369/kg BW; 2 and 4 dpi), SD 7, 48/2 h post 2nd dose
[20] = Group C (20 mg BKI 1369/kg BW; 2 and 4 dpi), SD 8, 72/24 h post 2nd dose
[21] = Group C (20 mg BKI 1369/kg BW; 2 and 4 dpi), SD 9, 96/48 h post 2nd dose
[22] = Group C (20 mg BKI 1369/kg BW; 2 and 4 dpi), SD 29, 576/528 h post 2nd dose
[23] = Group C: 20 mg BKI 1369/kg on SD 5 and SD 7, pooled feces, post first-dose

SMILES	Concentration in pooled fecal samples [1, 2]	Concentration in pooled fecal samples [1, 3]	Concentration in pooled fecal samples [1, 4]	Concentration in pooled fecal samples [1, 5]	Concentration in pooled fecal samples [1, 6]	Cmax [1, 7]	Fecal Tmax [1, 8]	Concentration in pooled fecal samples [1, 9]	Concentration in pooled fecal samples [1, 10]	Concentration in pooled fecal samples [1, 11]	Concentration in pooled fecal samples [1, 12]	Concentration in pooled fecal samples [1, 13]	Cmax [1, 14]	Fecal Tmax [1, 15]	Concentration in pooled fecal samples [1, 16]	Concentration in pooled fecal samples [1, 17]	Concentration in pooled fecal samples [1, 18]	Concentration in pooled fecal samples [1, 19]	Concentration in pooled fecal samples [1, 20]	Concentration in pooled fecal samples [1, 21]	also measured
CCOc1ccc2cc(-c3nn(CC4CCNCC4)c4ncnc(N)c34)ccc2n1 [BKI 1318]	0 nM	0 nM	300 nM	400 nM	0 nM	400 nM	48 h	0 nM	0 nM	0 nM	700 nM	0 nM	700 nM	48 h	0 nM	0 nM	300 nM	1900 nM	3600 nM	7000 nM	Concentration in pooled fecal samples [1, 22]: 300 nM; Cmax ([1]; Group C: 20 mg BKI 1369/kg on SD 5 and SD 7, pooled feces): 7000 nM; Fecal Tmax [1, 23]: 96 h; Excretion via the feces (in words) ([1]; after oral BKI 1369, piglets): relatively low excretion via the feces; Decrease of total merozoite counts (C. suis merozoites): 85.1%
CCOc1ccc2cc(-c3nn(CC4CCN(C)CC4)c4ncnc(N)c34)ccc2n1 [BKI 1369]	0 nM	800 nM	8100 nM	5500 nM	0 nM	8100 nM	24 h	0 nM	0 nM	800 nM	3000 nM	0 nM	3000 nM	48 h	0 nM	0 nM	4500 nM	37000 nM	19700 nM	29200 nM	Concentration in pooled fecal samples [1, 22]: 0 nM; Fecal Tmax [1, 23]: 48 h; Time of fecal peak, in general ([1]; all groups, metabolite levels continued to rise beyond 48 h): 24 to 48 h; Merozoite replication at 9 dpi (C. suis merozoites; incubation 0–3 dpi): significantly inhibited merozoite replication; Merozoite replication at 9 dpi (C. suis merozoites; incubation 3–6 dpi): significantly inhibited merozoite replication; Decrease of total merozoite counts (C. suis merozoites): 96.1%; Concentrations giving significant reduction of merozoite replication at 9 dpi (C. suis merozoites; single application 2 dpi): ≥ 200 nM
